Test results reported in patent US11555200B2, “Regulation of cotton fiber growth by extracellular nucleotides and ectoapyrases” (priority 2008, dated 2023).
“Also recorded” adds a separate entry of the source.

Assays:
cotton fibers = assay: In vitro cotton ovule culture, fiber growth (fiber length); format: cell-based, Gossypium hirsutum; settings: for increase in average fiber length: by 7 dpa; for block of promotion of fiber growth by 30 μM ATPγS and ADPβS: co-applied with 30 μM nucleotide, 7 dpa; for reversal of the effects of high concentrations of ATPγS and ADPβS on fiber growth: co-applied with 150 μM ATPγS or ADPβS; for block of both the inhibition and stimulation of fiber growth by ATPγS and ADPβS: summary statement
Protocol: In Vitro Ovule Culture. Cotton bolls were harvested within 24 hours of flower opening, 1-DPA, and all petals bracts, and sepals were removed. All collected cotton bolls were used within 24 hours of original harvest. If the bolls were not used immediately they were stored in a 4° C. refrigerator until ready for use. For sterilization, bolls were dropped into an 85% ethanol solution for at least 30 seconds but not more than two minutes and then removed with forceps. The excess ethanol was shaken off and the boll was passed through a flame until the residual ethanol was burned off. Ovules were then excised and placed in 10 mL of BT Cotton Media cell culture (Caisson Laboratories, Inc., North Logan, Utah, USA)+5.0 μM IAA and 0.5 μM GA3 (Sigma, St. Louis, Mo., USA) hormone solution, final concentration, in 60×15 mm Petri dishes and were then wrapped in Milli Wrap (Millipore Corporation, Bedford, Mass.). Twelve to 16 cotton ovules were placed into their respective Petri dishes and incubated with nucleotides, inhibitors, antibody serum or a combination of these at specified concentrations and were cultured at 32° C. in the dark without agitation. To facilitate combing of the cultured ovules, ovules were placed in a 75% ethanol solution for 15 minutes and then taken out to be combed. Fiber lengths were measured manually with a dissecting microscope after laying the ovule on its side and combing the fiber cells away from the ovule with forceps and dissecting probe.
In Vitro Cotton Ovule Culture Treatments. For studies testing the effects of apyrase inhibitors on cotton fiber growth, the inhibitors (NGXT191 and AI #4, both at 2.5 mg/mL), were dissolved in dimethyl sulfoxide and then applied to Cotton Media cell culture at 3 and 5 DPA after the introduction of cotton ovules to the media. For experiments testing the effects of apyrase antibodies on cotton fiber growth, apyrase antibodies were applied to Cotton Media cell culture at 3 and 5 DPA after the introduction of cotton ovules in the appropriate amounts. For experiments testing the effects of applying nucleotides during cotton fiber growth, various concentrations of ATPγS, ADPβS, and AMP (Sigma-Aldrich, Inc., St. Louis, Mo., USA) were added to Cotton Media cell culture at 5 DPA after the introduction of cotton ovules in the appropriate amounts. All nucleotides were made into 50 mM stocks dissolved in de-ionized water and kept at −20° C. while not in use. The inhibitor stocks were stored at ˜20° C. while not in use. For experiments testing the effects of P2-receptor antagonists, the antagonists (PPADS and Adenosine, stocks at 50 mM) were dissolved in de-ionized water and then applied to Cotton Media cell culture at 3 and 5 DPA for inhibitor and antibody experiments and 5 DPA for applied nucleotide experiments. The antagonists stocks were stored at ˜20° C. while not in use (Sigma-Aldrich, Inc., St. Louis, Mo., USA). The ethylene inhibitor (S)-trans-2-Amino-4-(2-aminoethoxy)-3-butenoic acid hydrochloride (Sigma-Aldrich, Inc., St. Louis, Mo., USA) (AVG, stock at 50 mM) was dissolved in de-ionized water and then applied to Cotton Media cell culture at 5 DPA. The production of the Arabidopsis anti-APY1 and APY2 antibodies used is described by Steinebrunner et al. (2003). The crude immune and pre-immune sera were purified using protein A-sepharose following the protocol described by Martin et al. (1982) with the slight modification that the buffers used were azide-free. Bio-rad assay was used to determine that the concentration of the immune serum and pre-immune serum which was 0.46 μg/mL and 0.3 μg/mL, respectively.

apyrase activity = assay: ATP level in the medium outside growing cotton fibers in ovule culture; format: cell-based, Gossypium hirsutum; settings: highest concentration of inhibitor, versus control level of 330 nM
Source text: Apyrase inhibitors and anti-apyrase antibodies inhibit fiber elongation. In order to test whether apyrase activity is important during cotton fiber growth we applied varying concentrations of two different chemical apyrase inhibitors, apyrase inhibitor 4 and NGXT191, to cotton ovule cultures at 3 dpa and 5 dpa. […] There is clearly a dose-dependent effect, and the effects at each dosage are statistically significant. […] The level of inhibition increased with increasing concentrations of both inhibitors. Next when PPADS, an inhibitor of animal purinoceptors, was tested, it could block the 40% inhibition of fiber growth caused by application of the highest concentration of apyrase inhibitors. […] Application of the highest concentration of inhibitors NGXT191 and 4 caused a 2.1-fold and 3.2-fold increase in ATP levels, respectively.
In Vitro Ovule Culture. Cotton bolls were harvested within 24 hours of flower opening, 1-DPA, and all petals bracts, and sepals were removed. All collected cotton bolls were used within 24 hours of original harvest. If the bolls were not used immediately they were stored in a 4° C. refrigerator until ready for use. […] Fiber lengths were measured manually with a dissecting microscope after laying the ovule on its side and combing the fiber cells away from the ovule with forceps and dissecting probe. […]

Compound	increase in average fiber length (cotton fibers; 30 μM) [%]	effect on fiber growth (cotton fibers; 150 μM, at 7 dpa)	block of promotion of fiber growth by 30 μM ATPγS and ADPβS (cotton fibers)	reversal of the effects of high concentrations of ATPγS and ADPβS on fiber growth (cotton fibers)	block of both the inhibition and stimulation of fiber growth by ATPγS and ADPβS (cotton fibers)	further results
Nc1ncnc2c1ncn2[C@@H]1O[C@H](COP(=O)(O)OP(O)(O)=S)[C@@H](O)[C@H]1O [ADPβS]	44	inhibit growth				
Nc1ncnc2c1ncn2[C@@H]1O[C@H](COP(O)(O)=S)[C@@H](O)[C@H]1O [AMPS]						effect on fiber growth (cotton fibers; 200 μM, at 7 dpa): no effect on growth; effect on fiber growth (cotton fibers; concentration not given): no change in the growth rate; also recorded: no effect on fiber growth
Nc1ncnc2c1ncn2[C@@H]1O[C@H](COP(=O)(O)OP(=O)(O)OP(O)(O)=S)[C@@H](O)[C@H]1O [ATPγS]	46	inhibit growth				promotion of cotton fiber growth (cotton fibers; 30 μM, at 5 dpa (data not shown)): statistically significant levels of promotion of cotton fiber growth; growth rate of fibers (cotton fibers; 30 μM, between 5 dpa and 7 dpa (data not shown)): statistically significant increase in the growth rate; inhibition of cotton fiber growth (cotton fibers; 150 μM, at 5 dpa): Statistically significant levels of inhibition of cotton fiber growth
Cc1cccc(NS(=O)(=O)c2ccc(-c3ccccc3)cc2)c1 [NGXT191]						inhibition of fiber growth (cotton fibers; all three concentrations, applied at 3 dpa and 5 dpa, fibers measured at 7 dpa): statistically significant inhibition of fiber growth; increase in ATP levels outside of the growing fibers (apyrase activity): 2.1 fold
Cc1nc(N=Nc2ccc(S(=O)(=O)O)cc2S(=O)(=O)O)c(COP(=O)(O)O)c(C=O)c1O [PPADS]			blocked	reversed	blocked	reversal of fiber growth inhibition caused by apyrase inhibitors (cotton fibers; 250 μM PPADS in the media with highest concentration of apyrase inhibitors): returned to control levels
Nc1ncnc2c1ncn2[C@@H]1O[C@H](CO)[C@@H](O)[C@H]1O [adenosine]			blocked	reversed	blocked	
